This is an account of results in patent US8987316B2, “Isocyanate and isothiocyanate compounds for cancer treatment” (priority 2011, dated 2015).

Where only a bound is given, the exact number is not on record here.

One series has as its system Breast tumors (MAXF 401). Nature of the series: Breast tumor MAXF 401 xenograft in nude mice, T/C value and mortality. The following applies: ip twice weekly over 5 weeks. The class given is in vivo. The procedure: (§1) All the tests were carried out using female nude mice under standard conditions for the keeping of animals with controlled illumination and temperature. The animals were given water and food as desired.
(§2) Breast tumors (MAXF 401) were implanted subcutaneously into the rear members of the mice aged 10 weeks. The increase in the volume of the individual tumors was measured using microcallipers, and the size of the tumor was calculated according to the formula a*b^2/2 (where a is the largest diameter of the tumor and b is the vertical axis). When the tumor volume had increased to 80-120 mm^3, the animals were allocated at random into test groups of in each case 6 animals.
The test compound (in the form of sodium salts) was dissolved in a saline solution, and 5% Klucel (hydroxypropylcellulose) was added in order to dissolve the test compound in the carrier. The compound was administered by intraperitoneal injection. A volume of 10 ml/kg body weight was injected. […] The tumor volume and the body weight were checked twice weekly, and the relative tumor volumes were calculated as the […]. […]
On the basis of the relative tumor volumes of the animals treated with the test compound compared with the tumor volumes of the controls treated only with the carrier, the T/C values were calculated and were used as the index of anti-tumor activity. […]

Another series deals with MAXF-401 xenograft tumor. Nature of the series: Dose-dependent anti-tumor activity in the MAXF-401 xenograft tumor model. The class given is in vivo. The procedure: as §2
The anti-tumor activity of the substance of Example 2a (sodium salt) was tested in a xenograft tumor panel. Therefore, xenografts of human tumors derived from the mentioned cancers were implanted in nude mice. The implantation and the determination of tumor volumes were carried out as described hereinbefore. Groups of 5 to 8 animals were used. The test compound was administered by ip injection twice weekly in the mentioned doses in the form of the sodium salt as an aqueous solution.
Therein, the anti-tumor activity of the compound of Example 2a (sodium salt) was examined in the MAXF-401 xenograft tumor model in the nude mouse. Subcutaneous implantation of the tumor and the determination of the tumor volume was carried out as described hereinbefore. The test compound was administered by ip injection twice weekly in the mentioned doses in the form of the sodium salt as an aqueous solution over a period of 4 weeks. […] A dose of 100 mg/kg was determined as the threshold dose, ≧200 mg/kg as the ED90 of the anti-tumor activity.

A short description of series [1]: Necrotic changes in the kidneys of treated animals. Format: in vivo, nude mice. The following applies: affected animals/animals. On the procedure: as §1
No necrotic changes were found in the kidneys of the animals treated with the compound according to the invention. This confirms the excellent tolerability profile of the compounds according to the invention.

For series [2], the system named is CXF280 xenograft tumor (colon carcinoma). As to the kind of experiment: Dose-dependent anti-tumor activity in the CXF280 colon carcinoma xenograft model. The class given is in vivo. The procedure:
as §2
The anti-tumor activity of the compound of Example 2a was thereby determined in the CXF280 xenograft tumor model in the nude mouse. Subcutaneous implantation of the tumor and the determination of tumor volumes were carried out as described hereinbefore. The test substance was administered by ip injection twice weekly in the mentioned doses in the form of the sodium salt as an aqueous solution, over a period of 4 weeks. Groups of in each case 8 animals were used.

Where [3] appears, read: MAXF-401, ip twice weekly over 4 weeks, sodium salt.

Turning to `O=C(O)CCOc1ccc(C(=O)c2ccc(N=C=S)cc2)cc1` [Example 2a], the T/C value in the series on Breast tumors (MAXF 401) (MAXF 401 breast tumor, sodium salt, ratio of tumor size treated/untreated, 100% would be no activity) amounted to 1.7. For the same compound, in the series on Breast tumors (MAXF 401) (dead animals/animals in the group), the Mortality is given as 0/6. The tolerability result in the series on MAXF-401 xenograft tumor (MAXF-401, dose range used) is “well tolerated”. Moreover, the “tumor response under therapy” value in the series on MAXF-401 xenograft tumor (MAXF-401, dose ≧200 mg/kg) is recorded as “remission of the tumors was observed”. Moreover, in the series on MAXF-401 xenograft tumor (setting [3]), the “ED90 of the anti-tumor activity” value is on record as at least 200 mg/kg and the “threshold dose of the anti-tumor activity” value was 100 mg/kg. In series [1], the Acute single-cell necrosis was 0/9 and the Focal tubular necrosis is reported as 0/9. Besides, in series [2] (CXF280, dose group of 200 mg/kg and 300 mg/kg), the “tumor growth inhibition and remission” value was “complete inhibition of tumor growth and the induction of remissions to obliteration of the tumor”. In series [2] (CXF280, dose range used), the tolerability entry is recorded as “well tolerated” and the “weight loss in the animals” value is “not associated with a significant weight loss”. Moreover, the anti-tumor action result in series [2] (CXF280, doses of 100, 200 or 300 mg/kg ip twice weekly over 4 weeks) is reported as “pronounced anti-tumor action”. Moreover, the ED90 doses in series [2] (CXF280, ip twice weekly over 4 weeks) was 200 mg/kg.
